Like-named read-outs stand apart in the source and are kept apart here.
How the values were obtained:
5-LO [1] = target: T1, 5-LO (Homo sapiens, UniProt P09917); experiment: Circular dichroism binding, protein melting curves
T1 sequence (P09917 1-674): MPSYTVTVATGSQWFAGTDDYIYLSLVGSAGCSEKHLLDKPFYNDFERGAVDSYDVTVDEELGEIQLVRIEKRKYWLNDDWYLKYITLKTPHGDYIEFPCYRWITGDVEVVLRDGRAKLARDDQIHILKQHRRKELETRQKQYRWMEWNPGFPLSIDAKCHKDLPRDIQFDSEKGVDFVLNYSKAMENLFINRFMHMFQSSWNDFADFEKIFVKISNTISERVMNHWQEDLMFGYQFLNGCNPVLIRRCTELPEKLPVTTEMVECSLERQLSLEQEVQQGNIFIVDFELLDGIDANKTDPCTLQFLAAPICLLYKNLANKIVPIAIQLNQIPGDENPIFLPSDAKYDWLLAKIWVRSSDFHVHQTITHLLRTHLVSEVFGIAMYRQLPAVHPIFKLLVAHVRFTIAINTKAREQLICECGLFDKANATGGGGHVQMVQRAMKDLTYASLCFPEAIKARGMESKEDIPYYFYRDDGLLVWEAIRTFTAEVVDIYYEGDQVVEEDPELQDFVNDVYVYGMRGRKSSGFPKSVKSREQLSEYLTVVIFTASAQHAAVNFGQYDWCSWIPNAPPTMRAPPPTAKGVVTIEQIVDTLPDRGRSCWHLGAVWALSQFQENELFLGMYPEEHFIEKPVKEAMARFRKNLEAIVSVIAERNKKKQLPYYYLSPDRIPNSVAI

HEL = experiment: Cell viability, AML model HEL (FIG. 9a); assay type: cell-based; details: Homo sapiens, n=3
15-LO = 15-LO inhibition in intact human neutrophils; assay type: cell-based; details: without DTT
Procedure: Peripheral blood (University Hospital Jena, Germany) was withdrawn from healthy adult volunteers with consent that had not taken any anti-inflammatory drugs during the last 10 days, by venipuncture in heparinized tubes (16 IE heparin/mL blood). The blood was centrifuged at 4000 g for 20 min at 20° C. for preparation of leukocyte concentrates. Leukocyte concentrates were then subjected to dextran sedimentation and centrifugation on lymphocyte separation medium (LSM 1077, PAA, Colbe, Germany). Contaminating erythrocytes of pelleted neutrophils were removed by hypotonic Iysis. […] Method B. […] Cysteinyl-LTs C4, D4 and E4 were not detected (amounts were below detection limit), and oxidation products of LTB4 were not determined.

HL-60 [2] = experiment: Cell viability, AML model HL-60 (FIG. 9a); assay type: cell-based; details: Homo sapiens, n=3
HEL-GFP cells = experiment: Xenograft model of human AML, HEL-GFP cells in NSG mice; assay type: in vivo
Procedure: The xenograft model of human AML used relies in the intra-bone marrow injection of 5×10^5 HEL-GFP cells into the right tibia of previously irradiated (200 rad) NSG mice. Upon tumor trigger in the blood mouse are randomly assigned for treatment with 1 (50 mg/kg intra-peritoneal) or vehicle.

HL-60 [3] = details: cited from earlier work
5-LO [4] = target: T1, 5-LO; experiment: 5-LO product formation in intact human neutrophils; assay type: cell-based; parameters: endogenous in cells; host or cells: neutrophils isolated from peripheral blood of healthy adult volunteers; intact or sonicated homogenates
Procedure: Peripheral blood (University Hospital Jena, Germany) was withdrawn from healthy adult volunteers with consent that had not taken any anti-inflammatory drugs during the last 10 days, by venipuncture in heparinized tubes (16 IE heparin/mL blood). The blood was centrifuged at 4000 g for 20 min at 20° C. for preparation of leukocyte concentrates. Leukocyte concentrates were then subjected to dextran sedimentation and centrifugation on lymphocyte separation medium (LSM 1077, PAA, Colbe, Germany). Contaminating erythrocytes of pelleted neutrophils were removed by hypotonic Iysis. […]
Method B. For determination of 5-LO products in intact neutrophils, the cells (5×10^6) were resuspended in 1 mL PGC buffer, preincubated for 15 min at 37° C. with β-lapachone or vehicle (0.1% DMSO), and incubated for 10 min at 37° C. with 2.5 μM Ca^2+-ionophore A23187 plus 20 μM AA. […] 5-LO products (LTB4, tr-LTB4 isomers, and 5-HETE), were analyzed by RP-HPLC and quantities calculated on the basis of the internal standard PGB1. Cysteinyl-LTs C4, D4 and E4 were not detected (amounts were below detection limit), and oxidation products of LTB4 were not determined.
Data are expressed as mean±S.E.M. IC50 values were calculated from averaged measurements at 6 different concentrations of the compound by nonlinear regression using GraphPad Prism software (San Diego, Calif.) one site binding competition. […]

EP2 = EP2 (Homo sapiens, UniProt P43116); experiment: Prostanoid EP2 receptor antagonism, functional assay; assay type: cell-based; details: 150 μM
Sequence of EP2 (P43116 whole entry): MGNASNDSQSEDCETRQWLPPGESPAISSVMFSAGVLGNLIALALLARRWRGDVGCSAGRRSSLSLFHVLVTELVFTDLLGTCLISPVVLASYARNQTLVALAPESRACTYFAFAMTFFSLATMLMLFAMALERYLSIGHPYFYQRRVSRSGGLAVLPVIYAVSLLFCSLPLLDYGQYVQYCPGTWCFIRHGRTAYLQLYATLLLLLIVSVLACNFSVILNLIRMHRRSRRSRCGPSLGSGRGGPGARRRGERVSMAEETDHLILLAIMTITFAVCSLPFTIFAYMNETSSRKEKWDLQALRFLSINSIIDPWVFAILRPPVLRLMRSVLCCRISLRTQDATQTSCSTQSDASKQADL

[5] = Dynamic light scattering, colloidal aggregation; assay type: physicochemical; details: relevant concentrations
Procedure: Dynamic light scattering (Zetasizer Nano S, Malvern, UK) was used to determine compound colloidal aggregation potential and kinetic solubility. The particle sizes were measured at 25° C. […] Colloidal aggregation was measured through sequential dilutions. Solubility was assessed at 25 μM after 0 and 30 minutes.

EP4 = EP4 (Homo sapiens, UniProt P35408); experiment: Prostanoid EP4 receptor activation, functional assay; assay type: cell-based; details: 150 μM
Sequence of EP4 (P35408 whole entry): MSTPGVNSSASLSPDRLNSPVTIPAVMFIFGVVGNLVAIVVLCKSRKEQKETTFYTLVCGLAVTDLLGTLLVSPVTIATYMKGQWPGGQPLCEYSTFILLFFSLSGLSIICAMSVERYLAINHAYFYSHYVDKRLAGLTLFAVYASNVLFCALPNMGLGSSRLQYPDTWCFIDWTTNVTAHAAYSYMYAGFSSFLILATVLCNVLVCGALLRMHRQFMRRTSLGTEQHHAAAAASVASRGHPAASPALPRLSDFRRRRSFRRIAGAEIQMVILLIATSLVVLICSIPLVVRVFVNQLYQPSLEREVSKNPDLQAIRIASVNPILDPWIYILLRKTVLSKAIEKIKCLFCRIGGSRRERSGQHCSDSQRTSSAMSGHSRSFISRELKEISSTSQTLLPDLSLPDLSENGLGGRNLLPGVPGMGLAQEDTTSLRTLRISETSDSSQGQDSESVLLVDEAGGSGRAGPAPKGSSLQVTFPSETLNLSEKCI

CC1(C)CCC2=C(O1)c1ccccc1C(=O)C2=O [Compound 1, 3,4-dihydro-2,2-dimethyl-2H-naphtho[1,2-b]pyran-5,6-dione]
Kd (5-LO [1]): 5700 nM | IC50 (HEL): 900 nM | IC50 (15-LO): > 30000 nM | IC50 (HL-60 [2]): 2700 nM | Overall survival (HEL-GFP cells; 50 mg/kg intra-peritoneal): significantly increased overall survival | Tumour burden in the blood (HEL-GFP cells; 50 mg/kg intra-peritoneal, day 9): tendency for lower burden | Tumour burden in organs (liver, spleen and lung) (HEL-GFP cells; longest-living treated mouse, sacrificed at day 30, versus non-treated controls): lower tumour burden in all the analysed organs | pGI50 z-score (HL-60 [3]; NCI-60, z-transformed pGI50): 2.38 | GI50 (HL-60 [3]; NCI-60): 62.4 nM | IC50 (5-LO [4]; 1 mM DTT, n=4, read-out: IC50, 5-LO activity in intact human neutrophils supplemented with DTT): 420 nM | IC50 (5-LO [4]; without DTT, A23187 plus arachidonic acid, n=3, read-out: IC50 (5-LO), intact human neutrophils): 8600 nM | EP2 antagonist effect (EP2): 60% | Colloidal aggregation [5]: no colloidal aggregation | EP4 activation (EP4): 53%

Source: US20210161855A1, “5-LIPOXYGENASE ANTAGONISTS” (INSTITUTO DE MEDICINA MOLECULAR JOÃO LOBO ANTUNES, priority 2017, published 2021)
